In patent publication US10392368B2, “Pyrazolo and triazolo bicyclic compounds as JAK kinase inhibitors” (THERAVANCE BIOPHARMA R&D IP, LLC, priority 2017, dated 2019):

Experiments:
[1] = biological target: T1, JAK3 (Homo sapiens, UniProt P52333); assay: Biochemical JAK3 kinase assay (LanthaScreen); design: GST; purchased Life Technologies; conditions: for Ki: read-out: JAK 3 (pKi) (converted); for JAK3 (pKi)-JAK1 (pKi): selectivity: difference of pKi JAK3 and pKi JAK1
T1 sequence (P52333 1-1124): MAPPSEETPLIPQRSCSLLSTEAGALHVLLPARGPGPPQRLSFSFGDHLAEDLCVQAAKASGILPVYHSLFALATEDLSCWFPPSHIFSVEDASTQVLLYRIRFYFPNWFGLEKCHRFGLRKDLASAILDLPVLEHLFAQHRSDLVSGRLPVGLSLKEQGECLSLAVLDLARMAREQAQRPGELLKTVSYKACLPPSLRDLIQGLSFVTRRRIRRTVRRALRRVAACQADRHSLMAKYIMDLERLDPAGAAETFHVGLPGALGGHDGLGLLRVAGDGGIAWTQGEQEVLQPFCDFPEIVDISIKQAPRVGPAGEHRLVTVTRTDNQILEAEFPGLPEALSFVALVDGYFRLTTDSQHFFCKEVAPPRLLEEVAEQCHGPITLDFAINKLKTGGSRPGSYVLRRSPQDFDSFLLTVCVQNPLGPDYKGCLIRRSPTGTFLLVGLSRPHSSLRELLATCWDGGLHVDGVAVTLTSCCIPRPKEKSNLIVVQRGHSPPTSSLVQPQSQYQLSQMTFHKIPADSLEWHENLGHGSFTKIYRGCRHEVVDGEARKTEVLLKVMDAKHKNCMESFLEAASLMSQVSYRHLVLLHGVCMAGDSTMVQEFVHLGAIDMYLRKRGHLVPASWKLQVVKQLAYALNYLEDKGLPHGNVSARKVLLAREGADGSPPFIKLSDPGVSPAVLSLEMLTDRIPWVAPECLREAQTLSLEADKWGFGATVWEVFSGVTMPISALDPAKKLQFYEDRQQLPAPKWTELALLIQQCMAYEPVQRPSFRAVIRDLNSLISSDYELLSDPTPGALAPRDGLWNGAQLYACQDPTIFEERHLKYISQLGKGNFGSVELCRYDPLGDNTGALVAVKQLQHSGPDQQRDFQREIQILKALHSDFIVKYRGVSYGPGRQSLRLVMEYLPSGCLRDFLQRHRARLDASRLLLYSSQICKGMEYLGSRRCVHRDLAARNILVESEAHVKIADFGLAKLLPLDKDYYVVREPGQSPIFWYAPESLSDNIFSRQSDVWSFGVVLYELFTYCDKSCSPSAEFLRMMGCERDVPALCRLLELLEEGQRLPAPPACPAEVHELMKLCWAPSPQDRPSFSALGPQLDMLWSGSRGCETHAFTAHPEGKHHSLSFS
Outline: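 GST-JAK + GFP-STAT1 peptide + cpd, 1 h preinc RT; ATP start, 1% DMSO, 1 h RT; stop 10 mM EDTA + 2 nM Tb-anti-pSTAT1; 1 h; TR-FRET 520/495. % inhib vs DMSO/background → IC50 (4-PL) → pKi (Cheng-Prusoff).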

[2] = Colon and plasma mouse pharmacokinetics; format: in vivo; conditions: mouse, colon tissue / plasma; male Balb/c mice, 10 mg/kg PO; 0.5, 2 and 6 hours; read-out: colon to plasma ratio (colon AUC to plasma AUC)
Procedure: 6 male Balb/c mice were administered 10 mg/kg of compound in 1% HPMC+0.1% Tween-80 by PO administration. At 0.5, 2 and 6 hours after dose administration, animals were anesthetized, and terminal blood samples were collected by cardiac puncture, followed by collection of colon contents and colon tissue.
Blood samples were collected into K2EDTA and stored on wet ice until processed to plasma by centrifugation (12000 rpm at 4° C.). Plasma samples were transferred to cluster tubes and placed on dry ice prior to freezer storage. The colon contents from each animal were collected at each terminal blood collection time point. The colon tissues were flushed with saline and patted dry. The colon and colon content tissues were homogenized using sterile water containing 0.1% formic acid 9:1 (water:tissue, v/w). The homogenized tissues and colon contents were transferred to cluster tubes and placed on dry ice prior to freezer storage. All samples were analyzed using LC/MS/MS against analytical standards.
The composite pharmacokinetic parameters of the compounds were determined by non-compartmental analysis using Phoenix WinNonlin Version 6 (Certara, St. Louis, Mo.) and using mean values from 2 animals/time point. For plasma concentrations below the quantification limit (BQL), the lowest concentration measurable or the BLOQ (below limit of quantification) was used.
A colon to plasma ratio was determined as the ratio of the colon AUC to the plasma AUC.

Row | SMILES | Ki [1] [nM] | JAK3 (pKi)-JAK1 (pKi) [1] | Kp [2]
1 | CN(C)C/C=C/C(=O)N1CCC(C)(Oc2cc(-c3ccc(O)cc3)cc3[nH]ncc23)CC1 [Compound 9, (E)-4-(dimethylamino)-1-(4-((6-(4-hydroxyphenyl)-1H-indazol-4-yl)oxy)-4-methylpiperidin-1-yl)but-2-en-1-one] | 0.1 to 1 | A (a value of 3 or above) | > 200
2 | C=CC(=O)N1CC[C@H](COc2cc(-c3ccc(O)cc3)cc3[nH]ncc23)C1 [Compound 7, (S)-1-(3-(((6-(4-hydroxyphenyl)-1H-indazol-4-yl)oxy)methyl)pyrrolidin-1-yl)prop-2-en-1-one] | 0.1 to 1 | A (a value of 3 or above) | > 1250
3 | C=CC(=O)N1CC(COc2nc(-c3ccc(O)cc3)nc3[nH]ncc23)C1 [Compound 4, 1-(3-(((6-(4-hydroxyphenyl)-1H-pyrazolo[3,4-d]pyrimidin-4-yl)oxy)methyl)azetidin-1-yl)prop-2-en-1-one] | < 0.1 | A (a value of 3 or above) | > 1250
4 | C=CC(=O)N1CC(C(C)(C)Oc2cc(-c3ccc(O)cc3)nc3[nH]ncc23)C1 [Compound 20, 1-(3-(2-((6-(4-hydroxyphenyl)-1H-pyrazolo[3,4-b]pyridin-4-yl)oxy)propan-2-yl)azetidin-1-yl)prop-2-en-1-one] | < 0.1 | A (a value of 3 or above) | > 200
5 | CN(C)C/C=C/C(=O)N1CC(COc2cc(-c3ccc(O)c(F)c3)cc3[nH]ncc23)C1 [Compound 5, (E)-4-(dimethylamino)-1-(3-(((6-(3-fluoro-4-hydroxyphenyl)-1H-indazol-4-yl)oxy)methyl)azetidin-1-yl)but-2-en-1-one] | < 0.1 | A (a value of 3 or above) | > 200
6 | CN(C)C/C=C/C(=O)N1CC(C(C)(C)Oc2cc(-c3ccc(O)c(Cl)c3)cc3[nH]ncc23)C1 [Compound 3, (E)-1-(3-(2-((6-(3-chloro-4-hydroxyphenyl)-1H-indazol-4-yl)oxy)propan-2-yl)azetidin-1-yl)-4-(dimethylamino)but-2-en-1-one] | 0.1 to 1 | A (a value of 3 or above) | > 1250
7 | CN(C)C/C=C/C(=O)N1CC(COc2cc(-c3ccc(O)cc3)cc3[nH]ncc23)C1 [Compound 1, (E)-4-(dimethylamino)-1-(3-(((6-(4-hydroxyphenyl)-1H-indazol-4-yl)oxy)methyl)azetidin-1-yl)but-2-en-1-one] | < 0.1 | A (a value of 3 or above) | > 1250
8 | C=CC(=O)N1CC(C)(COc2nc(-c3ccc(O)c(F)c3)nc3[nH]ncc23)C1 [Compound 21, 1-(3-(((6-(3-fluoro-4-hydroxyphenyl)-1H-pyrazolo[3,4-d]pyrimidin-4-yl)oxy)methyl)-3-methylazetidin-1-yl)prop-2-en-1-one] | < 0.1 | A (a value of 3 or above) | > 1250
9 | C=CC(=O)N1CC(CC)(COc2cc(-c3ccc(O)cc3)nc3[nH]ncc23)C1 [Compound 22, 1-(3-ethyl-3-(((6-(4-hydroxyphenyl)-1H-pyrazolo[3,4-b]pyridin-4-yl)oxy)methyl)azetidin-1-yl)prop-2-en-1-one] | < 0.1 | A (a value of 3 or above) | > 1250
10 | C=CC(=O)N1CCO[C@@H](C(=O)Nc2cc(-c3ccc(O)cc3)cc3[nH]ncc23)C1 [Compound 6, (R)-4-acryloyl-N-(6-(4-hydroxyphenyl)-1H-indazol-4-yl)morpholine-2-carboxamide] | < 0.1 | A (a value of 3 or above) | > 1250
11 | C=CC(=O)N1CC[C@H](Oc2cc(-c3ccc(O)c(Cl)c3)cc3[nH]ncc23)C1 [Compound 2, (S)-1-(3-((6-(3-chloro-4-hydroxyphenyl)-1H-indazol-4-yl)oxy)pyrrolidin-1-yl)prop-2-en-1-one] | < 0.1 | A (a value of 3 or above) | > 1250
12 | CN(C)C/C=C/C(=O)N1CC(C#N)(COc2cc(-c3ccc(O)c(F)c3)cc3[nH]ncc23)C1 [Compound 8, (E)-1-(4-(dimethylamino)but-2-enoyl)-3-(((6-(3-fluoro-4-hydroxyphenyl)-1Hindazol-4-yl)oxy)methyl)azetidine-3-carbonitrile] | < 0.1 | A (a value of 3 or above) | > 1250
